Test results: US20230274799A1, “SYSTEMS AND METHODS FOR PATIENT STRATIFICATION AND IDENTIFICATION OF POTENTIAL BIOMARKERS” (Berg LLC, priority 2016, published 2023)

Tests used:
[1] = Pharmacokinetics of Coenzyme Q10 in plasma during and after 144-hour continuous IV infusion; assay type: in vivo, human; set-up: Coenzyme Q10 concentration in plasma, Mean ± SD: unit not given here
Experimental: Pharmacokinetics of Coenzyme Q10 was measured in the patients at time zero and at several time points during and after the 144-hour continuous intravenous (IV) infusion with Coenzyme Q10.

solid tumors = experiment: Tumor response evaluation in Phase I trial; assay type: in vivo, human; conditions: Sixteen of 66 patients
Experimental: Tumor response was evaluated at week 2 and then after every 2 cycles. Sixteen of 66 patients (24%) maintained a minimum of Stable Disease for >4 cycles. Tumor response data was used to stratify the patients into “overall clinical benefit” or “no clinical benefit” groups.

Question: Which results are given for COC1=C(OC)C(=O)C(C/C=C(\C)CC/C=C(\C)CC/C=C(\C)CC/C=C(\C)CC/C=C(\C)CC/C=C(\C)CC/C=C(\C)CC/C=C(\C)CC/C=C(\C)CCC=C(C)C)=C(C)C1=O [Coenzyme Q10]?
Answer: Coenzyme Q10 concentration in plasma, Mean ± SD ([1]; 274 mg/kg/week, Arm 1, n = 3 (so in the source), time 143.5 hr): 510 ± 259; Coenzyme Q10 concentration in plasma, Mean ± SD ([1]; 274 mg/kg/week, Arm 1, n = 3 (so in the source), time 146 hr): 486 ± 254; Coenzyme Q10 concentration in plasma, Mean ± SD ([1]; 274 mg/kg/week, Arm 1, n = 3 (so in the source), time 148 hr): 380 ± 219; Coenzyme Q10 concentration in plasma, Mean ± SD ([1]; 274 mg/kg/week, Arm 1, n = 4 (footnote e), time 96 hr): 407 ± 195^e; Coenzyme Q10 concentration in plasma, Mean ± SD ([1]; 274 mg/kg/week, Arm 1, n = 4 (footnote e), time 140 hr): 517 ± 185^e; Coenzyme Q10 concentration in plasma, Mean ± SD ([1]; 274 mg/kg/week, Arm 1, n = 4 (footnote e), time 142 hr): 528 ± 179^e; Coenzyme Q10 concentration in plasma, Mean ± SD ([1]; 274 mg/kg/week, Arm 1, n = 5 (footnote d), time 4 hr): 181 ± 56^d; Coenzyme Q10 concentration in plasma, Mean ± SD ([1]; 274 mg/kg/week, Arm 1, n = 5 (footnote d), time 71.5 hr): 265 ± 188^d; Coenzyme Q10 concentration in plasma, Mean ± SD ([1]; 274 mg/kg/week, Arm 1, n = 5 (footnote d), time 146 hr): 460 ± 249^d; Coenzyme Q10 concentration in plasma, Mean ± SD ([1]; 274 mg/kg/week, Arm 1, n = 5 (footnote d), time 148 hr): 397 ± 230^d; Coenzyme Q10 concentration in plasma, Mean ± SD ([1]; 274 mg/kg/week, Arm 1, n = 6, time 0 hr): 0; Coenzyme Q10 concentration in plasma, Mean ± SD ([1]; 274 mg/kg/week, Arm 1, n = 6, time 1 hr): 188 ± 46; Coenzyme Q10 concentration in plasma, Mean ± SD ([1]; 274 mg/kg/week, Arm 1, n = 6, time 2 hr): 190 ± 38; Coenzyme Q10 concentration in plasma, Mean ± SD ([1]; 274 mg/kg/week, Arm 1, n = 6, time 24 hr): 287 ± 189; Coenzyme Q10 concentration in plasma, Mean ± SD ([1]; 274 mg/kg/week, Arm 1, n = 6, time 73 hr): 367 ± 313; Coenzyme Q10 concentration in plasma, Mean ± SD ([1]; 274 mg/kg/week, Arm 1, n = 6, time 74 hr): 387 ± 332; Coenzyme Q10 concentration in plasma, Mean ± SD ([1]; 274 mg/kg/week, Arm 1, n = 6, time 143.5 hr): 560 ± 246; Coenzyme Q10 concentration in plasma, Mean ± SD ([1]; 342 mg/kg/week, Arm 1, n = 4 (footnote e), time 96 hr): 411 ± 189^e; Coenzyme Q10 concentration in plasma, Mean ± SD ([1]; 342 mg/kg/week, Arm 1, n = 4 (footnote e), time 140 hr): 695 ± 414^e; Coenzyme Q10 concentration in plasma, Mean ± SD ([1]; 342 mg/kg/week, Arm 1, n = 4 (footnote e), time 143.5 hr): 789 ± 161^e; Coenzyme Q10 concentration in plasma, Mean ± SD ([1]; 342 mg/kg/week, Arm 1, n = 4 (footnote e), time 146 hr): 679 ± 141^e; Coenzyme Q10 concentration in plasma, Mean ± SD ([1]; 342 mg/kg/week, Arm 1, n = 4 (footnote e), time 148 hr): 596 ± 143^e; Coenzyme Q10 concentration in plasma, Mean ± SD ([1]; 342 mg/kg/week, Arm 1, n = 5, time 0 hr): 0; Coenzyme Q10 concentration in plasma, Mean ± SD ([1]; 342 mg/kg/week, Arm 1, n = 5, time 1 hr): 289 ± 59; Coenzyme Q10 concentration in plasma, Mean ± SD ([1]; 342 mg/kg/week, Arm 1, n = 5, time 2 hr): 297 ± 81; Coenzyme Q10 concentration in plasma, Mean ± SD ([1]; 342 mg/kg/week, Arm 1, n = 5, time 4 hr): 304 ± 90; Coenzyme Q10 concentration in plasma, Mean ± SD ([1]; 342 mg/kg/week, Arm 1, n = 5, time 24 hr): 463 ± 274; Coenzyme Q10 concentration in plasma, Mean ± SD ([1]; 342 mg/kg/week, Arm 1, n = 5, time 71.5 hr): 563 ± 188; Coenzyme Q10 concentration in plasma, Mean ± SD ([1]; 342 mg/kg/week, Arm 1, n = 5, time 73 hr): 514 ± 205; Coenzyme Q10 concentration in plasma, Mean ± SD ([1]; 342 mg/kg/week, Arm 1, n = 5, time 74 hr): 537 ± 219; Coenzyme Q10 concentration in plasma, Mean ± SD ([1]; 342 mg/kg/week, Arm 1, n = 5, time 142 hr): 699 ± 290; Mean plasma concentrations of Coenzyme Q10, comparison of doses ([1]; Arm 1 (monotherapy), exception: 96-hour sampling time, similar): higher for the 342 mg/kg/week dose than for the 274 mg/kg/week dose; Effect of concomitant chemotherapy on the pharmacokinetics of Coenzyme Q10 ([1]; Arm 1 vs Arm 2 at any of the dose levels): no apparent effect; Plasma profiles of Coenzyme Q10, comparison of doses ([1]; Arm 2 (chemotherapy combination therapy), first 72 hours of the infusion, distinctly higher during the second 72 hours): slightly higher for the 274 mg/kg/week dose than for the 220 mg/kg/week dose; Patients who maintained a minimum of Stable Disease for >4 cycles (solid tumors): 24%
